Earlier results as cited in US7915306B2, “Macrocyclic compounds useful as pharmaceuticals” (Eisai Co., Ltd., priority 2002, dated 2011).
Where two headings read alike, the source gives them in different places.

Experiments:
[1] = human plasma
[2] = mouse plasma

For `COc1cc(O)c2c(c1)/C=C/C[C@H](O)[C@H](O)C(=O)/C=C\C[C@H](C)OC2=O` [F152], the “biological stability (enone isomerization)” value [1] is given as “susceptible to enone isomerization”, the “biological stability (enone isomerization)” value [2] is given as “susceptible to enone isomerization” and the “inhibition of Map/Erk kinase (MEK)” value (Map/Erk kinase (MEK)) is given as “inhibit”.
